Patent publication US6894047B2, “Triazine compounds useful as sorbitol dehydrogenase inhibitors” (Pfizer Inc., priority 2001, dated 2005)

First: CC1CN(c2ncnc(CO)n2)CC(C)N1c1ncnc(CO)n1 (stereo not drawn) [Example 11, 1-{4-[4-(4-Hydroxymethyl-[1,3,5]triazin-2-yl)-3R,5S-dimethyl-piperazin-1-yl]-[1,3,5]triazin-2-yl}-methanol]
Second: CC1CN(c2ncnc(-c3ccccc3)n2)CC(C)N1c1ncnc(CO)n1 (stereo not drawn) [Example 16, 1-{4-[4-(4-Phenyl-[1,3,5]triazin-2-yl)-2R,6S-dimethyl-piperazin-1-yl]-[1,3,5]triazin-2-yl}-methanol]
The melting point of the first is higher: 224 to 225 °C for the first, 197 to 198 °C for the second.

First: COc1nc(C)nc(N2C(C)CN(c3ncnc(CO)n3)CC2C)n1 (stereo not drawn) [Example 12, 1-{4-[4-(4-methoxy-6-methyl-[1,3,5]triazin-2-yl)-3R,5S-dimethyl-piperazin-1-yl]-[1,3,5]triazin-2-yl}-methanol]
Second: Cc1nc(O)nc(N2C(C)CN(c3ncnc(C(C)O)n3)CC2C)n1 (stereo not drawn) [Example 15, 1-{4-[4-(4-Hydroxy-3-methyl-[1,3,5]triazin-2-yl)-3R,5S-dimethyl-piperazin-1-yl]-[1,3,5]triazin-2-yl}-ethanol]
The melting point of the first is lower: 155 to 160 °C for the first, 263 to 265 °C for the second.

`CC1CN(c2ncnc(CO)n2)CC(C)N1c1ncnc(-c2ccccc2)n1` (stereo not drawn) [Example 10, 1-{4-[4-(4-phenyl-[1,3,5]triazin-2-yl)-3R,5S-dimethyl-piperazin-1-yl]-[1,3,5]triazin-2-yl}-methanol] gave a melting point of 206 to 207 °C.

With `CC(O)c1ncnc(N2CC(C)N(c3nc(O)nc(-c4ccccc4)n3)C(C)C2)n1` (stereo not drawn) [Example 14, 1-{4-[4-(4-Hydroxy-6-phenyl-[1,3,5]triazin-2-yl)-3R,5S-dimethyl-piperazin-1-yl]-[1,3,5]triazin-2-yl}-ethanol] the melting point was > 275 °C.
